# Measurements reported in patent US5843449A, “Proteins and novel peptides derived from autoantigen for use in immunotherapy of autoimmune diseases” (Akzo Nobel N.V., priority 1996, dated 1998).
# Like-named read-outs stand apart in the source and are kept apart here. Residues, ends and D or L forms follow the SMILES beside them.
# Assays:
# [1] = molecular target: T1, DR4Dw4 (DRB1*0401) HLA-DR molecules (Homo sapiens, UniProt P01903+P01911, A100K/A169T/F76Y/I96L/K127E/L162R/M171V/N62H/P40V/Q125Y/R42H/S133A/S149N/S66Y/V115G/V209L/W38E); assay: HLA-DR peptide binding assay (competition with biotinylated marker peptide), DR4Dw4; details: pH = 5, 50 nM biotin-spacer-IHA(307-319)F marker peptide
# T1 construct: endogenous in cells; host or cells: BSM, EBV-transformed B-cell line
# [2] = system: PBMC from healthy donors; assay: Proliferative responses of PBMC from healthy donors (3H-thymidine); format: cell-based, human; details: 10% autologous serum
# Procedure: PBMC's from healthy donors carrying the DR4Dw4 (DRB1*0401) or the DR1 specificity were collected as a control.
# (§1) PBMC obtained from heparinized venous peripheral blood were isolated by standard centrifugation on a Ficoll-Paque gradient. […] Cultures were incubated in a total volume of 210 μl for 7 days at 37° C. in a humidified atmosphere of 5% CO2. Cultures were pulsed during the last 18 hours with 0.25 μCi^3 H-thymidine.
# [3] = molecular target: DR4Dw14 HLA-DR molecules; assay: HLA-DR peptide binding assay (competition with biotinylated marker peptide), DR4Dw14; design: species or system human; details: pH = 5, 50 nM biotin-spacer-IHA(307-319)F marker peptide
# [4] = system: PBMC from RA patients; assay: Proliferative responses of PBMC from RA patients (3H-thymidine); format: cell-based, human; details: 10% autologous serum
# Procedure: Peripheral blood mononuclear cells (PBMC) from patients who were diagnosed as suffering from RA according to the American Rheumatism Association (ARA) criteria (Arnett et al., Arthritis Rheum. 31:315, 1988) were collected.
# as §1
compound,measurement,setting,value
CC(C)[C@H](N)C(=O)NCC(=O)N[C@@H](Cc1ccc(O)cc1)C(=O)N[C@@H](CC(=O)O)C(=O)N[C@@H](CC(=O)O)C(=O)N[C@@H](CCC(N)=O)C(=O)N[C@@H](CCC(=O)O)C(=O)N[C@@H](CO)C(=O)N[C@H](C(=O)N[C@@H](CCCCN)C(=O)N[C@@H](CO)C(=O)N[C@@H](CCCCN)C(=O)N[C@H](C(=O)O)C(C)C)C(C)C [Peptide 3] (H-VGYDDQESVKSKV-OH),IC50,"[1]; DOT Blot, densitometer, read-out: ^R IC50, DR4Dw4, DOT Blot",230 nM
same,IC50,"[1]; SDS-PAGE, visual inspection, read-out: ^R IC50, DR4Dw4, SDS-PAGE",1000 nM
same,"Proliferative response, stimulation index (SI)","[2]; healthy donor 155-03 (NR), peptide 10 μg/ml",< 2
same,"Proliferative response, stimulation index (SI)","[2]; healthy donor 155-03 (NR), peptide 100 μg/ml",1
same,"Proliferative response, stimulation index (SI)","[2]; healthy donor 156-03 (NR), peptide 10 μg/ml",1
same,"Proliferative response, stimulation index (SI)","[2]; healthy donor 156-03 (NR), peptide 100 μg/ml",< 1
same,"Proliferative response, stimulation index (SI)","[2]; healthy donor 157-03 (NR), peptide 10 μg/ml",1
same,"Proliferative response, stimulation index (SI)","[2]; healthy donor 157-03 (NR), peptide 100 μg/ml",1
same,"Proliferative response, stimulation index (SI)","[2]; healthy donor 157-04 (R), peptide 10 μg/ml",1
same,"Proliferative response, stimulation index (SI)","[2]; healthy donor 168-03 (NR), peptide 10 μg/ml",1
same,"Proliferative response, stimulation index (SI)","[2]; healthy donor 168-03 (NR), peptide 100 μg/ml",1
same,"Proliferative response, stimulation index (SI)","[2]; healthy donor 168.02 (NR), peptide 10 μg/ml",< 2
same,"Proliferative response, stimulation index (SI)","[2]; healthy donor 168.02 (NR), peptide 100 μg/ml",< 2
same,"Proliferative response, stimulation index (SI)","[2]; healthy donor 169-02 (NR), peptide 10 μg/ml",1
same,"Proliferative response, stimulation index (SI)","[2]; healthy donor 169-02 (NR), peptide 100 μg/ml",1
same,"Proliferative response, stimulation index (SI)","[2]; healthy donor 230-01 (NR), peptide 10 μg/ml",1
same,"Proliferative response, stimulation index (SI)","[2]; healthy donor 230-01 (NR), peptide 100 μg/ml",1
same,"Proliferative response, stimulation index (SI)","[2]; healthy donor 235-0 (NR), peptide 10 μg/ml",1
same,"Proliferative response, stimulation index (SI)","[2]; healthy donor 235-0 (NR), peptide 100 μg/ml",< 2
same,"Proliferative response, stimulation index (SI)","[2]; healthy donor 235-01 (NR), peptide 10 μg/ml",< 1
same,"Proliferative response, stimulation index (SI)","[2]; healthy donor 235-01 (NR), peptide 100 μg/ml",< 2
same,"Proliferative response, stimulation index (SI)","[2]; healthy donor 236-01 (NR), peptide 10 μg/ml",1
same,"Proliferative response, stimulation index (SI)","[2]; healthy donor 236-01 (NR), peptide 100 μg/ml",< 1
same,"Proliferative response, stimulation index (SI)","[2]; healthy donor 237-0 (NR), peptide 10 μg/ml",< 1
same,"Proliferative response, stimulation index (SI)","[2]; healthy donor 237-0 (NR), peptide 100 μg/ml",1
same,"Proliferative response, stimulation index (SI)","[2]; healthy donor 237-01 (NR), peptide 10 μg/ml",1
same,"Proliferative response, stimulation index (SI)","[2]; healthy donor 237-01 (NR), peptide 100 μg/ml",1
same,"Proliferative response, stimulation index (SI)","[2]; healthy donor 238-01 (NR), first line so labelled, peptide 10 μg/ml",1
same,"Proliferative response, stimulation index (SI)","[2]; healthy donor 238-01 (NR), first line so labelled, peptide 100 μg/ml",1
same,"Proliferative response, stimulation index (SI)","[2]; healthy donor 238-01 (NR), second line so labelled, peptide 10 μg/ml",1
same,"Proliferative response, stimulation index (SI)","[2]; healthy donor 238-01 (NR), second line so labelled, peptide 100 μg/ml",1
same,"Proliferative response, stimulation index (SI)","[2]; healthy donor 241-0 (NR), peptide 10 μg/ml",< 1
same,"Proliferative response, stimulation index (SI)","[2]; healthy donor 241-0 (NR), peptide 100 μg/ml",< 1
same,"Proliferative response, stimulation index (SI)","[2]; healthy donor 241-01 (R), peptide 10 μg/ml",< 1
same,"Proliferative response, stimulation index (SI)","[2]; healthy donor 241-01 (R), peptide 100 μg/ml",1
same,IC50,"[3]; DOT Blot, densitometer, read-out: ^R IC50, DR4Dw14, DOT Blot",> 10000 nM
same,IC50,"[3]; SDS-PAGE, visual inspection, read-out: ^R IC50, DR4Dw14, SDS-PAGE",≤ 50000 nM
same,"Proliferative response, stimulation index (SI)","[4]; RA patient 191-03 (HR), disease state IV, peptide 10 μg/l",1
same,"Proliferative response, stimulation index (SI)","[4]; RA patient 191-03 (HR), disease state IV, peptide 100 μg/l",< 2
same,"Proliferative response, stimulation index (SI)","[4]; RA patient 215-0 (HR), disease state III-IV, peptide 25 μg/l",3
same,"Proliferative response, stimulation index (SI)","[4]; RA patient 215-0 (HR), disease state III-IV, peptide 100 μg/l",6
same,"Proliferative response, stimulation index (SI)","[4]; RA patient 240-0 (HR), disease state II-III, peptide 25 μg/l",2
same,"Proliferative response, stimulation index (SI)","[4]; RA patient 240-0 (HR), disease state II-III, peptide 100 μg/l",6
same,"Proliferative response, stimulation index (SI)","[4]; RA patient 242-0 (HR), disease state I, peptide 25 μg/l",9
same,"Proliferative response, stimulation index (SI)","[4]; RA patient 242-0 (HR), disease state I, peptide 100 μg/l",3
same,"Proliferative response, stimulation index (SI)","[4]; RA patient 243-0 (R), disease state III, peptide 10 μg/l",1
same,"Proliferative response, stimulation index (SI)","[4]; RA patient 243-0 (R), disease state III, peptide 100 μg/l",1
same,"Proliferative response, stimulation index (SI)","[4]; RA patient 247-0 (R), disease state III, peptide 10 μg/l",1
same,"Proliferative response, stimulation index (SI)","[4]; RA patient 248-0 (R), disease state III, peptide 10 μg/l",1
same,"Proliferative response, stimulation index (SI)","[4]; RA patient 248-0 (R), disease state III, peptide 100 μg/l",1
same,"Proliferative response, stimulation index (SI)","[4]; RA patient 272-0 (HR), disease state III-IV, peptide 10 μg/l",< 1
same,"Proliferative response, stimulation index (SI)","[4]; RA patient 272-0 (HR), disease state III-IV, peptide 100 μg/l",< 1
same,"Proliferative response, stimulation index (SI)","[4]; RA patient 273-0 (HR), disease state IV, peptide 10 μg/l",1
same,"Proliferative response, stimulation index (SI)","[4]; RA patient 273-0 (HR), disease state IV, peptide 100 μg/l",6
same,"Proliferative response, stimulation index (SI)","[4]; RA patient 275-0 (HR), disease state III, peptide 10 μg/l",1
same,"Proliferative response, stimulation index (SI)","[4]; RA patient 275-0 (HR), disease state III, peptide 100 μg/l",1
same,"Proliferative response, stimulation index (SI)","[4]; RA patient 276-0 (HR), disease state IV, burnt out, peptide 10 μg/l",< 1
same,"Proliferative response, stimulation index (SI)","[4]; RA patient 276-0 (HR), disease state IV, burnt out, peptide 100 μg/l",1
same,"Proliferative response, stimulation index (SI)","[4]; RA patient 280-0 (HR), disease state IV, burnt out, peptide 10 μg/l",1
same,"Proliferative response, stimulation index (SI)","[4]; RA patient 280-0 (HR), disease state IV, burnt out, peptide 100 μg/l",1
